Assay results taken from patent US20170022171A1, “2,5-DISUBSTITUTED CYCLOPENTANECARBOXYLIC ACIDS AND THEIR USE” (Bayer Pharma Aktiengesellschaft, priority 2014, published 2017).

Assays:
Format in all cases: biochemical
[1] = target: T1, human macrophage elastase (HME/hMMP-12) (Homo sapiens, UniProt P39900); assay: In vitro HME inhibition test (standard or high-sensitivity); details: in some cases mean values
T1 construct: 0.5 nM HME; purchased R&D Systems 917-MP
Method in brief: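 Fluorogenic assay: 0.5 nM autoactivated HME with 5 µM Mca-Pro-Leu-Gly-Leu-Glu-Glu-Ala-Dap(Dnp)-NH2 in HEPES pH 7.4 buffer (NaCl, CaCl2, ZnCl2, EDTA, Brij), 2 h at 37 °C; ex 323/em 393 nm. IC50 from fluorescence versus concentration. High-sensitivity format: ~0.05 nM enzyme, ~16 h incubation.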

MMP-9 = target: T2, MMP-9 (Homo sapiens, UniProt P14780); assay: In vitro MMP-9 inhibition test
T2 construct: purchased R&D Systems 911-MP
Method in brief: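 Recombinant MMP-9 was APMA-activated and used at e.g. 0.1 nM final in 50 mM Tris/HCl pH 7.5, 10 mM CaCl2, 150 mM NaCl, 0.05% Brij-35, with compound at e.g. 1 nM to 30 μM. Quenched Mca-Pro-Leu-Gly-Leu-Dpa(Dnp)-Ala-Arg-NH2 substrate (e.g. 10 μM) was followed by fluorescence (ex 320/em 410 nm), e.g. 120 min at 32 °C. IC50 corresponds to 50% signal.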

MMP-3 = target: T3, MMP-3 (Homo sapiens, UniProt P08254); assay: In vitro MMP-3 inhibition test
T3 construct: purchased R&D Systems 513-MP
Method in brief: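 APMA-activated recombinant MMP-3 (e.g. 2 nM final) preincubated with compound in 50 mM Tris/HCl pH 7.5, 10 mM CaCl2, 150 mM NaCl, 0.05% Brij-35; quenched Mca/Dnp peptide substrate (e.g. 10 μM) started the reaction. Fluorescence (ex 320/em 410 nm) followed e.g. 120 min at 32° C; IC50 at 50% signal.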

MMP-8 = target: T4, MMP-8 (Homo sapiens, UniProt P22894); assay: In vitro MMP-8 inhibition test
T4 construct: purchased R&D Systems 908-MP
Method in brief: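 APMA-activated recombinant MMP-8 (final e.g. 0.5 nM) preincubated with compound in DMSO (e.g. 1 nM–30 μM) in 50 mM Tris/HCl pH 7.5, 10 mM CaCl2, 150 mM NaCl, 0.05% Brij-35. Reaction started with quenched Mca-Pro-Leu-Gly-Leu-Dpa(Dnp)-Ala-Arg-NH2 substrate (e.g. 10 μM); fluorescence (ex 320/em 410 nm) followed e.g. 120 min at 32° C; IC50 at 50% signal.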

MMP-10 = target: T5, MMP-10 (Homo sapiens, UniProt P09238); assay: In vitro MMP-10 inhibition test
T5 construct: purchased R&D Systems 910-MP
Method in brief: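 APMA-activated recombinant MMP-10 (final e.g. 2 nM) with quenched Mca-Arg-Pro-Lys-Pro-Val-Glu-Nval-Trp-Arg-Lys(Dnp)-NH2 substrate (final e.g. 10 μM) in 50 mM Tris/HCl pH 7.5, 10 mM CaCl2, 150 mM NaCl, 0.05% Brij-35. Fluorescence (ex 320/em 410 nm) followed e.g. 120 min at 32 °C. IC50 at 50% signal.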

T3 sequence (P08254 100-477): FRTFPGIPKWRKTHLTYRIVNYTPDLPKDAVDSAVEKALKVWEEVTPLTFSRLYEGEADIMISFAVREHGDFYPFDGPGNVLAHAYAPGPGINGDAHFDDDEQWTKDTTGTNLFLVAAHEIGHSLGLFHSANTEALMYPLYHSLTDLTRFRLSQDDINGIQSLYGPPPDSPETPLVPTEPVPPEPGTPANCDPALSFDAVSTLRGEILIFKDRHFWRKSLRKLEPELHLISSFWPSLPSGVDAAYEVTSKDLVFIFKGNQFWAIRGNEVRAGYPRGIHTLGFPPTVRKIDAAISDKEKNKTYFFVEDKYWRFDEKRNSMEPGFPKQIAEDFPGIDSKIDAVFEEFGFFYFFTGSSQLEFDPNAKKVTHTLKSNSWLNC
T2 sequence (P14780 107-707 limits assumed): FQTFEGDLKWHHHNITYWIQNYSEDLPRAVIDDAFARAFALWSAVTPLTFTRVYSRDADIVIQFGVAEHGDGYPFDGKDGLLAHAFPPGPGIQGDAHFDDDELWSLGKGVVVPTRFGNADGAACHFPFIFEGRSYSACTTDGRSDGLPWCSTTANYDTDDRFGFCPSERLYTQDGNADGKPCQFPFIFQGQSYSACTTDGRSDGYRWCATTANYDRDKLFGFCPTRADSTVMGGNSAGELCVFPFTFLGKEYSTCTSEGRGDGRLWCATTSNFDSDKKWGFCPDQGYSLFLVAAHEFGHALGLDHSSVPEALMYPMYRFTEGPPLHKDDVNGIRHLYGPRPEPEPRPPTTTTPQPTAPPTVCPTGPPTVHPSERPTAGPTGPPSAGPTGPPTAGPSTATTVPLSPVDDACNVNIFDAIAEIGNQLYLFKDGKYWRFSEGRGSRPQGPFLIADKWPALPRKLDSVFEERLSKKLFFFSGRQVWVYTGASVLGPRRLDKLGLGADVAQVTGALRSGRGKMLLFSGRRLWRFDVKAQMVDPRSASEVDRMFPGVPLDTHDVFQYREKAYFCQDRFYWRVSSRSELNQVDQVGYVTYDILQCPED
T4 sequence (P22894 101-467): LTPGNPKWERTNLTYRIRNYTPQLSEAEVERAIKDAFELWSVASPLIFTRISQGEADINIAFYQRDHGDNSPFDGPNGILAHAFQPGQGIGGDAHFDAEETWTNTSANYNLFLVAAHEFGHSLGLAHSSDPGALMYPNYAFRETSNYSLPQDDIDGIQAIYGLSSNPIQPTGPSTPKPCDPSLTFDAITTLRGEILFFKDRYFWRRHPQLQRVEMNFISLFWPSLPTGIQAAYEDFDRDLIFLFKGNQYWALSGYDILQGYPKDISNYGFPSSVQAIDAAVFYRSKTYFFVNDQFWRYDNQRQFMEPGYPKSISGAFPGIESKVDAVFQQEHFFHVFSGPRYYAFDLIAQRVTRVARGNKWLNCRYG
T1 sequence (P39900 106-470): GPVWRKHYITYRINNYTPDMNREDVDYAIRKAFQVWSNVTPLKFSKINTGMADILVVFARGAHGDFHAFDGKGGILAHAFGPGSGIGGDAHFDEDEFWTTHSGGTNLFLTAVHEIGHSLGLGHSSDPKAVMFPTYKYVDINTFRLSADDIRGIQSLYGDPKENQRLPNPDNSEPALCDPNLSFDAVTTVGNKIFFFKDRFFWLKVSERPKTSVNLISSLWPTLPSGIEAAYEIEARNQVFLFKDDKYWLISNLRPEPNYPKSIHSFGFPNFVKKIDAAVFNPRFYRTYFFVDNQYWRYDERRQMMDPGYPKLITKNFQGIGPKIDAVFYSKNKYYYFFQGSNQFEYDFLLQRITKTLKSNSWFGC
T5 sequence (P09238 99-476): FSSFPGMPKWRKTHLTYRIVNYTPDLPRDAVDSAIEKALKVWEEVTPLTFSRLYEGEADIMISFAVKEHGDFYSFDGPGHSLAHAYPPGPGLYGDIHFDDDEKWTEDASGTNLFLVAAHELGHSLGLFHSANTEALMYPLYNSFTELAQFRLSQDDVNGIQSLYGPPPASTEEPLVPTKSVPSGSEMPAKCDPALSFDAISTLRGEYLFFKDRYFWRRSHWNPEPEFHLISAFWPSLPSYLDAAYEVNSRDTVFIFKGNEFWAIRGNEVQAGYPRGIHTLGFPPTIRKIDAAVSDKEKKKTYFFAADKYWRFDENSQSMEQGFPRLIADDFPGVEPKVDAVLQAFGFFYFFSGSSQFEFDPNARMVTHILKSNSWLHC

Row | Molecule | IC50 [1] [nM] | IC50 (MMP-9) [nM] | IC50 (MMP-3) [nM] | IC50 (MMP-8) [nM] | IC50 (MMP-10) [nM]
1 | Cc1ccc2nnn(C[C@H]3CC[C@@H](C(=O)c4ccc(OCc5ccccc5)cc4)[C@@H]3C(=O)O)c(=O)c2c1 (single isomer, unassigned) [Example 92, (+)-(1RS,2RS,5SR)-2-[4-(Benzyloxy)benzoyl]-5-[(6-methyl-4-oxo-1,2,3-benzotriazin-3(4H)-yl)methyl]cyclopentanecarboxylic acid] | 0.048 | 13 | 150 | 2.4 | 15
2 | Cc1ccc2nnn(C[C@H]3CC[C@@H](C(=O)c4ccc(OCc5cccc(Cl)c5)cc4)[C@@H]3C(=O)O)c(=O)c2c1 (single isomer, unassigned) [Example 104, (+)-(1RS,2RS,5SR)-2-{4-[(3-Chlorobenzyl)oxy]benzoyl}-5-[(6-methyl-4-oxo-1,2,3-benzotriazin-3(4H)-yl)methyl]cyclopentanecarboxylic acid] | 0.12 | 110 | 260 | 31 | 50
3 | (+)-(1RS,2RS,5SR)-2-{4-[Cyclohexyl)methyl)sulphanyl]benzoyl}-5-{[4-oxo-6-(trifluoromethyl)-1,2,3-benzotriazin-3(4H)-yl]methyl}cyclopentanecarboxylic acid [Example 86] | 0.018 | 1500 | 1300 | 150 | 160
4 | CCCCCCOc1ccc(C(=O)[C@@H]2CC[C@H](Cn3nnc4ccc(C)cc4c3=O)[C@H]2C(=O)O)cc1 (single isomer, unassigned) [Example 121, (+)-(1RS,2RS,5SR)-2-[4-(Hexyloxy)benzoyl]-5-[(6-methyl-4-oxo-1,2,3-benzotriazin-3(4H)-yl)methyl]cyclopentanecarboxylic acid] | 0.078 | 57 | 410 | 18 | 93
5 | O=C(O)[C@H]1[C@H](Cn2nnc3ccccc3c2=O)CC[C@@H]1C(=O)c1ccc(OCC2CCCC2)cc1 (racemic) [Example 4, (+/−)-(1RS,2RS,5SR)-2-[4-(Cyclopentylmethoxy)benzoyl]-5-[(4-oxo-1,2,3-benzotriazin-3(4H)-yl)methyl]cyclopentanecarboxylic acid] | 0.049 | 130 | 1100 | 14 | 110
6 | O=C(O)[C@@H]1[C@@H](Cn2nnc3ccc(C(F)(F)F)cc3c2=O)CC[C@H]1C(=O)c1ccc(OCc2cccc(Cl)c2)cc1 (single isomer, unassigned) [Example 23, (+)-(1RS,2RS,5SR)-2-{4-[(3-Chlorobenzyl)oxy]benzoyl}-5-{[4-oxo-6-(trifluoromethyl)-1,2,3-benzotriazin-3(4H)-yl]methyl}cyclopentanecarboxylic acid] | 0.032 | 270 | 540 | 56 | 87
7 | O=C(O)[C@H]1[C@H](Cn2nnc3ccc(C(F)(F)F)cc3c2=O)CC[C@@H]1C(=O)c1ccc(OCc2ccccc2)cc1 (racemic) [Example 11, (+/−)-(1RS,2RS,5SR)-2-[4-(Benzyloxy)benzoyl]-5-{[4-oxo-6-(trifluoromethyl)-1,2,3-benzotriazin-3(4H)-yl]methyl}cyclopentanecarboxylic acid] | 0.014 | 18 | 100 | 3.2 | 16
8 | O=C(O)[C@@H]1[C@@H](Cn2nnc3ccc(C(F)(F)F)cc3c2=O)CC[C@H]1C(=O)c1ccc(OCc2cccc(C(F)(F)F)c2)cc1 (single isomer, unassigned) [Example 19, (+)-(1RS,2SR,5RS)-2-{[4-Oxo-6-(trifluoromethyl)-1,2,3-benzotriazin-3(4H)-yl]methyl}-5-(4-{[3-(trifluoromethyl)benzyl]oxy}benzoyl)cyclopentanecarboxylic acid] | 0.027 | 1000 | 3000 | 130 | 270
9 | CCCCOc1ccc(C(=O)[C@@H]2CC[C@H](Cn3nnc4ccc(C(F)(F)F)cc4c3=O)[C@H]2C(=O)O)cc1 (single isomer, unassigned) [Example 67, (+)-(1RS,2RS,5SR)-2-(4-Butoxybenzoyl)-5-{[4-oxo-6-(trifluoromethyl)-1,2,3-benzotriazin-3(4H)-yl]methyl}cyclopentanecarboxylic acid] | 0.015 | 61 | 140 | 1.6 | 14
10 | O=C(O)[C@@H]1[C@@H](Cn2nnc3ccc(C(F)(F)F)cc3c2=O)CC[C@H]1C(=O)c1ccc(OCc2cccc(N3CCOC3=O)c2)cc1 (single isomer, unassigned) [Example 35, (+)-(1RS,2RS,5SR)-2-(4-{[3-(2-Oxo-1,3-oxazolidin-3-yl)benzyl]oxy}benzoyl)-5-{[4-oxo-6-(trifluoromethyl)-1,2,3-benzotriazin-3(4H)-yl]methyl}cyclopentanecarboxylic acid] | 0.013 | 1400 | 400 | 2 | 53
11 | O=C(O)[C@@H]1[C@@H](Cn2nnc3ccc(C(F)(F)F)cc3c2=O)CC[C@H]1C(=O)c1ccc(SCc2ccc(Cl)c(Cl)c2)cc1 (single isomer, unassigned) [Example 80, (+)-(1RS,2RS,5SR)-2-{4-[(3,4-Dichlorobenzyl)sulphanyl]benzoyl}-5-{[4-oxo-6-(trifluoromethyl)-1,2,3-benzotriazin-3(4H)-yl]methyl}cyclopentanecarboxylic acid] | 0.079 | 780 | 150 | 52 | 53
12 | Cc1ccc2nnn(C[C@H]3CC[C@@H](C(=O)c4ccc(OCC5CCCCC5)cc4)[C@@H]3C(=O)O)c(=O)c2c1 (single isomer, unassigned) [Example 117, (+)-(1RS,2RS,5SR)-2-[4-(Cyclohexylmethoxy)benzoyl]-5-[(6-methyl-4-oxo-1,2,3-benzotriazin-3(4H)-yl)methyl]cyclopentanecarboxylic acid] | 0.014 | 54 | 110 | 4 | 26
13 | O=C(O)[C@H]1[C@H](Cn2nnc3ccc(C(F)(F)F)cc3c2=O)CC[C@@H]1C(=O)c1ccc(OCCCC2CCCCC2)cc1 (racemic) [Example 56, (+/−)-(1RS,2RS,5SR)-2-{4-(3-Cyclohexylpropoxy)benzoyl}-5-{[4-oxo-6-(trifluoromethyl)-1,2,3-benzotriazin-3(4H)-yl]methyl}cyclopentanecarboxylic acid] | 0.2 | 4900 | 2000 | 580 | 250
14 | O=C(O)[C@H]1[C@H](Cn2nnc3ccccc3c2=O)CC[C@@H]1C(=O)c1ccc(OCc2ccc(F)cc2)cc1 (racemic) [Example 1, (+/−)-(1RS,2RS,5SR)-2-{4-[(4-Fluorobenzyl)oxy]benzoyl}-5-[(4-oxo-1,2,3-benzotriazin-3(4H)-yl)methyl]cyclopentanecarboxylic acid] | 0.052 | 4.7 | 170 | 2.5 | 33
15 | Cc1cccc(COc2ccc(C(=O)[C@H]3CC[C@@H](Cn4nnc5ccc(C(F)(F)F)cc5c4=O)[C@@H]3C(=O)O)cc2)c1 (racemic) [Example 15, (+/−)-(1RS,2RS,5SR)-2-{4-[(3-Methylbenzyl)oxy]benzoyl}-5-{[4-oxo-6-(trifluoromethyl)-1,2,3-benzotriazin-3(4H)-yl]methyl}cyclopentanecarboxylic acid] | 0.05 | 230 | 220 | 26 | 26
16 | O=C(O)[C@H]1[C@H](Cn2nnc3ccc(C(F)(F)F)cc3c2=O)CC[C@@H]1C(=O)c1ccc(OCc2cccc(C(F)(F)F)c2)cc1 (racemic) [Example 18, (+/−)-(1RS,2SR,5RS)-2-{[4-Oxo-6-(trifluoromethyl)-1,2,3-benzotriazin-3(4H)-yl]methyl}-5-(4-{[3-(trifluoromethyl)benzyl]oxy}benzoyl)cyclopentanecarboxylic acid] | 0.11 | 940 | 1000 | 61 | 200
